Test results reported in US11897868B2, “Heterocyclic inhibitors of PCSK9” (CARDIO THERAPEUTICS PTY LTD, priority 2017, dated 2024).

What follows are molecules tested against T1, PCSK9 and the LDL receptor (Homo sapiens, UniProt Q8NBP7) (assay: CircuLex PCSK9-LDLR in vitro binding assay). Conditions: His-tagged PCSK9 wild type, 8 point concentration curves, absorbance 450 nm and 540 nm, read-out: Inhibition of PCSK9-LDLR binding.
T1 construct: purchased CircuLex CY-8150
Method: Compounds were assayed for their ability to inhibit the binding between PCSK9 and the LDL receptor using a CircuLex PCSK9-LDLR in vitro binding assay kit (Catalog #CY-8150. The procedure employed the reagents and buffers included in the kit as follows.
88 μL of 1× reaction buffer were placed into each well. 5 μL of test compounds in 20% DMSO were added into each well. 10 mM solutions of test compounds in DMSO were diluted by 3-fold series to give 8 point concentration curves. The compounds were then diluted 20-fold with the reaction buffer. To each well was then added 7 μL of His-tagged PCSK9 wild type solution (1000 ng/mL) into each well. The plate was then covered with a plate sealer and incubated at room temperature for 3 hours, shaking at 300 rpm on an orbital microplate shaker. The test solutions were washed 4 times with 350 μL wash buffer. 100 μL of biotinylated anti-His-tag monoclonal antibody was added to each well. The plate was covered with a plate sealer, and incubated at room temperature for 1 hour, shaking at 300 rpm. The test solutions were washed 4 times with 350 μL wash buffer. 100 μL of HRP-conjugated streptavidin was added to each well. The plate was covered with a plate sealer, and incubated at room temperature for 20 min, shaking at 300 rpm.
The test solutions were washed 4 times with 350 μL wash buffer. 100 μL of substrate reagent were added into each well. The plate was covered with a plate sealer, and incubated at room temperature for 15 min, shaking at 300 rpm. Finally, 100 μL of the stop solution was added to each well in the same order as the previously added substrate reagent. Absorbance was measured at 450 nm and 540 nm and IC50 curves were plotted.

T1 sequence (Q8NBP7 153-692): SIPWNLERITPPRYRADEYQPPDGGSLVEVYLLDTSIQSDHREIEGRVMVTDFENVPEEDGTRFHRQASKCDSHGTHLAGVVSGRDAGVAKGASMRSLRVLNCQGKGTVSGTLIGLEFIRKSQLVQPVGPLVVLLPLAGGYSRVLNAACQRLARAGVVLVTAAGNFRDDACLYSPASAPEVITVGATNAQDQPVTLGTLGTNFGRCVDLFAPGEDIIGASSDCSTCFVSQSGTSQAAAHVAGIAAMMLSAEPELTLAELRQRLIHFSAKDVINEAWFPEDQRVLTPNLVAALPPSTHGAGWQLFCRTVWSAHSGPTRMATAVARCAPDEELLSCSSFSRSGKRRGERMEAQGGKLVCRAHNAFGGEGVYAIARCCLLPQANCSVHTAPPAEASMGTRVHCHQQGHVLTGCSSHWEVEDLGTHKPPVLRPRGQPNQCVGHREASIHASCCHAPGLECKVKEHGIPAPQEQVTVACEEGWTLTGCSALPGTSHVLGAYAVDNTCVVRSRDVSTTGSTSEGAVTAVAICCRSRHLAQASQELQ
T1 sequence (Q8NBP7 31-152 partner limits assumed): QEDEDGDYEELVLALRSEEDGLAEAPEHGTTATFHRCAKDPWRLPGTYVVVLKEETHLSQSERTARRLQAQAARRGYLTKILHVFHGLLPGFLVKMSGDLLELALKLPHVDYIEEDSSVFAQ

Question: How did the IC50 turn out when Cc1cn(-c2cc(NC(=O)c3ccc(C)c(Nc4nccc(-c5ccccn5)n4)c3)cc(C(F)(F)F)c2)cn1 [Example 1, 4-methyl-N-(3-(4-methyl-1H-imidazol-1-yl)-5-(trifluoromethyl)phenyl)-3-((4-(pyridin-2-yl)pyrimidin-2-yl)amino)benzamide] was run?
Answer: 10 to 100 µM

Question: How did the IC50 turn out when Cc1cn(-c2cc(NC(=O)c3ccc(C)c(Nc4nccc(-c5ccncc5)n4)c3)cc(C(F)(F)F)c2)cn1 [Example 2, 4-methyl-N-(3-(4-methyl-1H-imidazol-1-yl)-5-(trifluoromethyl)phenyl)-3-((4-(pyridin-4-yl)pyrimidin-2-yl)amino)benzamide] was run?
Answer: 1 to 10 µM

Question: Cc1cn(-c2cc(NC(=O)c3ccc(C)c(Nc4nccc(-c5ccccc5)n4)c3)cc(C(F)(F)F)c2)cn1 [Example 3, 4-methyl-N-(3-(4-methyl-1H-imidazol-1-yl)-5-(trifluoromethyl)phenyl)-3-((4-phenylpyrimidin-2-yl)amino)benzamide] was tested. Which IC50 did it give?
Answer: 1 to 10 µM

Question: For Cc1cn(-c2cc(NC(=O)c3ccc(C)c(Nc4ncccn4)c3)cc(C(F)(F)F)c2)cn1 [Example 4, 4-methyl-N-(3-(4-methyl-1H-imidazol-1-yl)-5-(trifluoromethyl)phenyl)-3-(pyrimidin-2-ylamino)benzamide], which IC50 is on record?
Answer: 10 to 100 µM

Question: For Cc1cn(-c2cc(NC(=O)c3ccc(C)c(Nc4nccc(-c5ccccc5)n4)c3)cc(N3CCNCC3)c2)cn1 [Example 5, 4-methyl-N-(3-(4-methyl-1H-imidazol-1-yl)-5-(piperazin-1-yl)phenyl)-3-((4-phenylpyrimidin-2-yl)amino)benzamide], which IC50 is on record?
Answer: 0.1 to 1 µM

Question: Cc1cn(-c2cc(NC(=O)c3ccc(C)c(Nc4nccc(-c5ccccc5)n4)c3)cc(N3CCN(C)CC3)c2)cn1 [Example 6, 4-methyl-N-(3-(4-methyl-1H-imidazol-1-yl)-5-(4-methylpiperazin-1-yl)phenyl)-3-((4-phenylpyrimidin-2-yl)amino)benzamide] was tested. Which IC50 did it give?
Answer: 0.1 to 1 µM

Question: For Cc1cn(-c2cc(CN3CCN(C)CC3)cc(NC(=O)c3ccc(C)c(Nc4nccc(-c5ccccc5)n4)c3)c2)cn1 [Example 7, 4-methyl-N-(3-(4-methyl-1H-imidazol-1-yl)-5-((4-methylpiperazin-1-yl)methyl)phenyl)-3-((4-phenylpyrimidin-2-yl)amino)benzamide], which IC50 is on record?
Answer: 0.1 to 1 µM

Question: Which IC50 does the source give for Cc1cn(-c2cc(/C=C/C(=O)O)cc(NC(=O)c3ccc(C)c(Nc4nccc(-c5ccccc5)n4)c3)c2)cn1 [Example 8, (E)-3-(3-(4-methyl-1H-imidazol-1-yl)-5-(4-methyl-3-((4-phenylpyrimidin-2-yl)amino)benzamido)phenyl)acrylic Acid] here?
Answer: 10 to 100 µM

Question: With Cc1cn(-c2cc(CCC(=O)O)cc(NC(=O)c3ccc(C)c(Nc4nccc(-c5ccccc5)n4)c3)c2)cn1 [Example 9, 3-(3-(4-methyl-1H-imidazol-1-yl)-5-(4-methyl-3-((4-phenylpyrimidin-2-yl)amino)benzamido)phenyl)propanoic Acid] as the molecule, how does the IC50 read?
Answer: 1 to 10 µM

Question: With Cc1cn(-c2cc(CCS(N)(=O)=O)cc(NC(=O)c3ccc(C)c(Nc4nccc(-c5ccccc5)n4)c3)c2)cn1 [Example 10, 4-methyl-N-(3-(4-methyl-1H-imidazol-1-yl)-5-(2-sulfamoylethyl)phenyl)-3-((4-phenylpyrimidin-2-yl)amino)benzamide] as the molecule, how does the IC50 read?
Answer: 10 to 100 µM

Question: CCCCc1cc(NC(=O)c2ccc(C)c(Nc3nccc(-c4ccccc4)n3)c2)cc(-n2cnc(C)c2)c1 [Example 11, N-(3-butyl-5-(4-methyl-1H-imidazol-1-yl)phenyl)-4-methyl-3-((4-phenylpyrimidin-2-yl)amino)benzamide] was tested. Which IC50 did it give?
Answer: 1 to 10 µM

Question: With Cc1ccc(C(=O)Nc2cc(-n3cnc(C)c3)cc(C(F)(F)F)c2)cc1 [Example 12, 4-methyl-N-(3-(4-methyl-1H-imidazol-1-yl)-5-(trifluoromethyl)phenyl)benzamide] as the molecule, how does the IC50 read?
Answer: 10 to 100 µM

Question: For Cc1cn(-c2cc(NC(=O)c3ccc(C)c(Oc4ccccc4)c3)cc(C(F)(F)F)c2)cn1 [Example 13, 4-methyl-N-(3-(4-methyl-1H-imidazol-1-yl)-5-(trifluoromethyl)phenyl)-3-phenoxybenzamide], which IC50 is on record?
Answer: 10 to 100 µM

Question: With Cc1cn(-c2cc(NC(=O)c3ccc(C)c(OCc4ccccc4)c3)cc(C(F)(F)F)c2)cn1 [Example 14, 3-(benzyloxy)-4-methyl-N-(3-(4-methyl-1H-imidazol-1-yl)-5-(trifluoromethyl)phenyl)benzamide] as the molecule, how does the IC50 read?
Answer: 10 to 100 µM

Question: For Cc1cn(-c2cc(NS(=O)(=O)c3ccc(C)c(Nc4nccc(-c5ccccc5)n4)c3)cc(C(F)(F)F)c2)cn1 [Example 15, 4-methyl-N-(3-(4-methyl-1H-imidazol-1-yl)-5-(trifluoromethyl)phenyl)-3-((4-phenylpyrimidin-2-yl)amino)benzenesulfonamide], which IC50 is on record?
Answer: 10 to 100 µM

Question: How did the IC50 turn out when CC(=O)Nc1ccnc(Nc2cc(C(=O)Nc3cc(-n4cnc(C)c4)cc(C(F)(F)F)c3)ccc2C)n1 [Example 16, 3-((4-acetamidopyrimidin-2-yl)amino)-4-methyl-N-(3-(4-methyl-1H-imidazol-1-yl)-5-(trifluoromethyl)phenyl)benzamide] was run?
Answer: 10 to 100 µM

Question: With Cc1ccc(C(=O)Nc2cccc(C(F)(F)F)c2)cc1Nc1nccc(-c2cccnc2)n1 [Example 17, 4-methyl-3-((4-(pyridin-3-yl)pyrimidin-2-yl)amino)-N-(3-(trifluoromethyl)phenyl)benzamide] as the molecule, how does the IC50 read?
Answer: > 100 µM

Question: Which IC50 does the source give for Cc1cn(-c2cc(N3C(=O)c4cc(C)c(Nc5nccc(-c6cccnc6)n5)cc4C3=O)cc(C(F)(F)F)c2)cn1 [Example 18, 5-methyl-2-(3-(4-methyl-1H-imidazol-1-yl)-5-(trifluoromethyl)phenyl)-6-((4-(pyridin-3-yl)pyrimidin-2-yl)amino)isoindoline-1,3-dione] here?
Answer: 1 to 10 µM

Question: Cc1cn(-c2cc(CN3CCC[C@H](N)C3)cc(NC(=O)c3ccc(C)c(Nc4nccc(-c5ccc(F)cc5)n4)c3)c2)cn1 [Example 19, (S)—N-(3-((3-aminopiperidin-1-yl)methyl)-5-(4-methyl-1H-imidazol-1-yl)phenyl)-3-((4-(4-fluorophenyl)pyrimidin-2-yl)amino)-4-methylbenzamide] was tested. Which IC50 did it give?
Answer: 0.1 to 1 µM

Question: Cc1cn(-c2cc(CN3CCCC[C@H]3C(=O)O)cc(NC(=O)c3ccc(C)c(Nc4nccc(-c5ccc(F)cc5)n4)c3)c2)cn1 [Example 20, (S)-1-(3-(3-((4-(4-fluorophenyl)pyrimidin-2-yl)amino)-4-methylbenzamido)-5-(4-methyl-1H-imidazol-1-yl)benzyl)piperidine-2-carboxylic Acid] was tested. Which IC50 did it give?
Answer: 10 to 100 µM

Question: Cc1cn(-c2cc(CN3CCCC[C@H]3C(N)=O)cc(NC(=O)c3ccc(C)c(Nc4nccc(-c5ccc(F)cc5)n4)c3)c2)cn1 [Example 21, (S)-1-(3-(3-((4-(4-fluorophenyl)pyrimidin-2-yl)amino)-4-methylbenzamido)-5-(4-methyl-1H-imidazol-1-yl)benzyl)piperidine-2-carboxamide] was tested. Which IC50 did it give?
Answer: 1 to 10 µM

Same assay, conditions: His-tagged PCSK9 wild type; 8 point concentration curves; absorbance 450 nm and 540 nm; IC50 curves

Question: For Cc1cn(-c2cc(NS(=O)(=O)c3ccc(C)c(Nc4nccc(-c5ccc(F)cc5)n4)c3)cc(N3CCN(C)CC3)c2)cn1 [Example 22, 3-((4-(4-fluorophenyl)pyrimidin-2-yl)amino)-4-methyl-N-(3-(4-methyl-1H-imidazol-1-yl)-5-(4-methylpiperazin-1-yl)phenyl)benzenesulfonamide], which “Inhibition of PCSK9-LDLR binding” value is on record?
Answer: * (Starred values refer to levels of inhibition of binding by less than 35% at the highest concentration tested, due either to solubility limitations or dynamic range limitations of the assay.)
